Measurements taken from patent publication US11071731B2, “Allosteric modulators of the mu opioid receptor” (Chiromics, LLC, priority 2017, dated 2021).

Experiments:
mu opioid receptor (MOR) [1] = molecular target: T1, mu opioid receptor (MOR) (Homo sapiens, UniProt P35372); test: PathHunter β-arrestin recruitment assay, PAM mode with EC20 endomorphin-1; assay type: cell-based; settings: for allosteric activity for β-arrestin recruitment: EC20 endomorphin-1 concentration of 4.5 nM
How it was run: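 Enzyme fragment complementation read-out: β-gal ED fragment fused to receptor, EA fused to β-arrestin, recruitment restoring β-gal activity detected by chemiluminescence. EC50 and percent maximal response derived for each compound.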

mu opioid receptor (MOR) [2] = molecular target: T1, mu opioid receptor (MOR); test: Hit Hunter cAMP signaling assay (adenylyl cyclase inhibition), PAM mode with EC20 endomorphin-1; assay type: cell-based
[3] = maximal response for β-arrestin recruitment
[4] = β-arrestin recruitment, read-out: β-arr. EC50
[5] = cAMP EC50, adenylyl cyclase inhibition
[6] = maximal response for adenylyl cyclase inhibition
[7] = adenylyl cyclase inhibition, read-out: cAMP EC50

T1 sequence (P35372 whole entry, the tested form may be a part): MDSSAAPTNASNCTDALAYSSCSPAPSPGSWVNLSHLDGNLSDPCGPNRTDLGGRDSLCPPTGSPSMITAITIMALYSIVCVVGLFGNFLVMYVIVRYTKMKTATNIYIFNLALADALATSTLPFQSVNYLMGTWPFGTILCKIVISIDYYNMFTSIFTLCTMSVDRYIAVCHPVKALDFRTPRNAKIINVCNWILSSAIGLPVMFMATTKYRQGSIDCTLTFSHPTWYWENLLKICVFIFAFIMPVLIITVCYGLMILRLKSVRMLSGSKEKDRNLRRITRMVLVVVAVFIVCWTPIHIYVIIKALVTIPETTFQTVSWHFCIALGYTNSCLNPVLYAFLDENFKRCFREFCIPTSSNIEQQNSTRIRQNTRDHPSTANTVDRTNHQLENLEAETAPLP

Row | SMILES | β-arr Max. Resp. (mu opioid receptor (MOR) [1]; [3]) | EC50 (mu opioid receptor (MOR) [1]; [4]) [µM] | EC50 (mu opioid receptor (MOR) [2]; [5]) [µM] | cAMP Max. Resp. (mu opioid receptor (MOR) [2]; [6]) | EC50 (mu opioid receptor (MOR) [2]; [7]) [µM] | also measured
1 | Cc1cnc(C2CCCCN2c2nc(Cl)ncc2F)o1 (stereo not drawn) [compound 364] | D (D represents a maximal response of < 40%) | < 0.7 | < 0.7 | D (D represents a maximal response of < 40%) | – | –
2 | Fc1cc(Cl)cc(C2CCCCN2c2nc(Cl)ncc2F)c1 (single isomer, unassigned) [compound 404] | D (D represents a maximal response of < 40%) | < 0.7 | < 0.7 | D (D represents a maximal response of < 40%) | – | –
3 | OC1Cc2ccccc2C1N1CCCCC1c1ccc(F)c(Cl)c1 (stereo not drawn) [compound 447] | – | > 2.1 | > 2.1 | – | – | β-arr Max. Resp. (mu opioid receptor (MOR) [1]; maximal response, β-arrestin recruitment): D (D represents a maximal response of < 40%); cAMP Max. Resp. (mu opioid receptor (MOR) [2]; maximal response, adenylyl cyclase inhibition): D (D represents a maximal response of < 40%)
4 | Cc1nccc(C2CCCCN2c2nc(Cl)ccc2F)n1 (stereo not drawn) [compound 381] | D (D represents a maximal response of < 40%) | < 0.7 | – | D (D represents a maximal response of < 40%) | < 0.7 | –
5 | O=S(=O)(c1ccc(Cl)cc1)N1CCCCC1c1ccc(Cl)cc1 (racemic) [compound 76] | F (F represents a maximal response of > 60%) | > 2.1 | – | D (D represents a maximal response of < 40%) | > 2.1 | –
6 | O=S(=O)(c1ccc(Cl)cc1)N1CCCCC1c1ccc(F)c(C(F)(F)F)c1 (racemic) [compound 55] | F (F represents a maximal response of > 60%) | > 2.1 | – | E (E represents a maximal response of 40-60%) | 0.7 to 2.1 | β-arrestin Max Response (mu opioid receptor (MOR) [1]; β-arrestin recruitment, activity switching by MOR PAMs): F (F represents a maximal response of >60%); EC50 (mu opioid receptor (MOR) [1]; β-arrestin recruitment, activity switching by MOR PAMs, read-out: β-arrestin EC50): > 2.1 µM; cAMP Max Resp. (mu opioid receptor (MOR) [2]; adenylyl cyclase inhibition, activity switching by MOR PAMs): D (D represents a maximal response of < 40%); EC50 (mu opioid receptor (MOR) [2]; adenylyl cyclase inhibition, activity switching by MOR PAMs, read-out: cAMP EC50): > 2.1 µM
7 | N#Cc1ccc(C2CCCCN2S(=O)(=O)c2ccc(Cl)cc2)cc1C(F)(F)F (racemic) [compound 49] | F (F represents a maximal response of > 60%) | > 2.1 | – | F (F represents a maximal response of > 60%) | > 2.1 | –
8 | Cc1cc(C2C(C)CCN2S(=O)(=O)c2ccc(Cl)cc2)ccc1F (mixture of isomers) [Compound 101] | F (F represents a maximal response of > 60%) | 0.7 to 2.1 | – | D (D represents a maximal response of < 40%) | < 0.7 | –
9 | Fc1cnc(Cl)nc1N1CCCCC1c1cncc(C(F)(F)F)c1 (stereo not drawn) [compound 376] | D (D represents a maximal response of < 40%) | < 0.7 | < 0.7 | D (D represents a maximal response of < 40%) | – | –
10 | CC1CCN(S(=O)(=O)c2ccc(Cl)cc2)C1c1ccc(F)c(F)c1 (mixture of isomers) [Compound 97] | F (F represents a maximal response of > 60%) | 0.7 to 2.1 | – | D (D represents a maximal response of < 40%) | 0.7 to 2.1 | –
11 | COc1ccc(C2CC(C)CN2c2nc(Cl)ncc2F)cc1Br (stereo not drawn) [compound 237] | E (E represents a maximal response of 40-60%) | > 2.1 | – | D (D represents a maximal response of < 40%) | > 2.1 | –
12 | FC(F)(F)c1cccc(C2CCCCN2Cc2ccc(Cl)c(Cl)c2)n1 (stereo not drawn) [compound 153] | F (F represents a maximal response of > 60%) | > 2.1 | > 2.1 | D (D represents a maximal response of < 40%) | – | –
13 | Fc1ccc(C2CCCCN2Cc2cc(Cl)ccc2F)cc1Cl (stereo not drawn) [compound 160] | F (F represents a maximal response of > 60%) | 0.7 to 2.1 | 0.7 to 2.1 | F (F represents a maximal response of > 60%) | – | –
14 | Fc1cc(C2C3CCC(C3)N2Cc2cc(Cl)ccc2F)cc(C(F)(F)F)c1 (stereo not drawn) [compound 216] | F (F represents a maximal response of > 60%) | < 0.7 | > 2.1 | D (D represents a maximal response of < 40%) | – | allosteric activity for β-arrestin recruitment (mu opioid receptor (MOR) [1]): high positive allosteric activity; allosteric activity for β-arrestin recruitment (mu opioid receptor (MOR) [1]; listed as Compound No. 216): high allosteric modulatory capability; allosteric activity for cAMP signaling (mu opioid receptor (MOR) [2]; EC20 endomorphin-1 concentration of 0.45 nM): silent allosteric activity
15 | O=S(=O)(c1ccc(Cl)cc1)N1CCCCC1c1cccc(Cl)c1 (racemic) [compound 61] | F (F represents a maximal response of > 60%) | > 2.1 | – | E (E represents a maximal response of 40-60%) | > 2.1 | –
16 | Fc1cccc(C2CCCCN2c2nccc(Cl)n2)n1 (stereo not drawn) [compound 260] | D (D represents a maximal response of < 40%) | > 2.1 | > 2.1 | D (D represents a maximal response of < 40%) | – | –
17 | O=S(=O)(c1ccc(Cl)cc1)N1CCCCC1c1ccc(C(F)(F)F)cn1 (racemic) [compound 65] | F (F represents a maximal response of > 60%) | > 2.1 | – | E (E represents a maximal response of 40-60%) | > 2.1 | –

Row | SMILES | β-arr Max. Resp. (mu opioid receptor (MOR) [1]; [3]) | EC50 (mu opioid receptor (MOR) [1]; [4]) [µM] | EC50 (mu opioid receptor (MOR) [2]; [5]) [µM] | cAMP Max. Resp. (mu opioid receptor (MOR) [2]; [6]) | EC50 (mu opioid receptor (MOR) [2]; [7]) [µM] | also measured
18 | Fc1ccnc(C2CCCCN2c2nc(Cl)ncc2F)c1 (stereo not drawn) [compound 412] | D (D represents a maximal response of < 40%) | < 0.7 | < 0.7 | D (D represents a maximal response of < 40%) | – | –
19 | COc1ncc(N2CCCCC2c2cccc(F)n2)c(F)n1 (stereo not drawn) [compound 296] | D (D represents a maximal response of < 40%) | > 2.1 | – | D (D represents a maximal response of < 40%) | > 2.1 | –
20 | Fc1cnc(Cl)nc1N1CCCCC1c1cncc(Cl)c1 (stereo not drawn) [compound 280] | F (F represents a maximal response of > 60%) | – | – | E (E represents a maximal response of 40-60%) | – | EC50 (mu opioid receptor (MOR) [2]): > 2.1 µM
21 | O=S(=O)(c1ccc(Cl)cc1)N1C2CCC(C2)C1c1ccc(F)c(Br)c1 (stereo not drawn) [Compound 179] | F (F represents a maximal response of > 60%) | 0.7 to 2.1 | – | D (D represents a maximal response of < 40%) | < 0.7 | –
22 | COc1ccc(C2CC(C)CN2S(=O)(=O)c2ccc(Cl)cc2)cc1Br (single isomer, unassigned) [Compound 118] | E (E represents a maximal response of 40-60%) | 0.7 to 2.1 | – | D (D represents a maximal response of < 40%) | > 2.1 | –
23 | Fc1cnc(Cl)nc1N1CCCCC1c1ccnc(Cl)c1 (stereo not drawn) [compound 328] | D (D represents a maximal response of < 40%) | < 0.7 | < 0.7 | D (D represents a maximal response of < 40%) | – | –
24 | COc1ccc(C2CCCCN2c2cc(F)cc(Cl)n2)cc1Br (stereo not drawn) [compound 215] | F (F represents a maximal response of > 60%) | 0.7 to 2.1 | > 2.1 | D (D represents a maximal response of < 40%) | – | –
25 | Fc1cnccc1C1CCCCN1c1nc(Cl)ncc1F (stereo not drawn) [compound 375] | D (D represents a maximal response of < 40%) | < 0.7 | < 0.7 | D (D represents a maximal response of < 40%) | – | –
26 | O=C1CCN(c2nc(Cl)ncc2F)C(c2cc(F)cc(C(F)(F)F)c2)C1 (stereo not drawn) [compound 238] | E (E represents a maximal response of 40-60%) | > 2.1 | > 2.1 | D (D represents a maximal response of < 40%) | – | –
27 | CC1CCN(S(=O)(=O)c2ccc(Cl)cc2)C1c1ccc(OC(F)(F)F)c(Br)c1 (mixture of isomers) [Compound 94] | F (F represents a maximal response of > 60%) | < 0.7 | – | D (D represents a maximal response of < 40%) | < 0.7 | –
28 | N#Cc1cccc(N2CCCCC2c2ccc(F)c(Cl)c2)c1 (stereo not drawn) [compound 218] | E (E represents a maximal response of 40-60%) | 0.7 to 2.1 | – | D (D represents a maximal response of < 40%) | > 2.1 | –
29 | Fc1cnc(Cl)nc1N1CCCCC1c1ccc(Cl)c(C(F)(F)F)c1 (single isomer, unassigned) [compound 345] | D (D represents a maximal response of < 40%) | < 0.7 | < 0.7 | D (D represents a maximal response of < 40%) | – | –
30 | COc1ccc(C2CCCCN2c2ncnc(Cl)c2F)cc1Br (stereo not drawn) [compound 228] | F (F represents a maximal response of > 60%) | > 2.1 | > 2.1 | F (F represents a maximal response of > 60%) | – | –
31 | COc1ncc(F)c(N2CCCCC2c2cccc(F)n2)n1 (stereo not drawn) [compound 272] | D (D represents a maximal response of < 40%) | > 2.1 | > 2.1 | F (F represents a maximal response of > 60%) | – | –
32 | COc1ccc(C2COCCN2Cc2cc(Cl)ccc2F)cc1Br (racemic) [Compound 192] | F (F represents a maximal response of > 60%) | > 2.1 | – | D (D represents a maximal response of < 40%) | > 2.1 | –
33 | Fc1cc(C2CCCCN2Cc2cc(Cl)ccc2F)cc(C(F)(F)F)c1 (stereo not drawn) [compound 167] | F (F represents a maximal response of > 60%) | < 0.7 | 0.7 to 2.1 | F (F represents a maximal response of > 60%) | – | –
